# Measurements from PubChem BioAssay (NCI).
#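 Tested at 5 concentrations; 48 h exposure; 96-well plates; endpoints linearly interpolated, else capped at highest concentration. TGI denotes the concentration required for complete inhibition of growth.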
# Columns and labels:
# Assay in all cases: NCI anticancer screen, dose series, 48 h
# 786-0 renal = test system: 786-0 renal
# A498 renal = test system: A498 renal
# A549 NSCLC = test system: A549 NSCLC
# ACHN renal = test system: ACHN renal
# CAKI-1 renal = test system: CAKI-1 renal
# CCRF-CEM leukemia = test system: CCRF-CEM leukemia
# COLO 205 colon = test system: COLO 205 colon
# DU-145 prostate = test system: DU-145 prostate
# EKVX NSCLC = test system: EKVX NSCLC
# HCT-116 colon = test system: HCT-116 colon
# HCT-15 colon = test system: HCT-15 colon
# HL-60(TB) leukemia = test system: HL-60(TB) leukemia
# HOP-92 NSCLC = test system: HOP-92 NSCLC
# HT29 colon = test system: HT29 colon
# IGROV1 ovarian = test system: IGROV1 ovarian
# K-562 leukemia = test system: K-562 leukemia
# LOX IMVI melanoma = test system: LOX IMVI melanoma
# M14 melanoma = test system: M14 melanoma
# MCF7 breast = test system: MCF7 breast
# MDA-MB-231 breast = test system: MDA-MB-231 breast
# MDA-MB-435 = test system: MDA-MB-435
# MDA-N = test system: MDA-N
# MOLT-4 leukemia = test system: MOLT-4 leukemia
# NCI-H226 lung = test system: NCI-H226 lung
# NCI-H23 lung = test system: NCI-H23 lung
# NCI-H460 lung = test system: NCI-H460 lung
# NCI-H522 lung = test system: NCI-H522 lung
# NCI/ADR-RES ovarian = test system: NCI/ADR-RES ovarian
# OVCAR-3 ovarian = test system: OVCAR-3 ovarian
# OVCAR-4 ovarian = test system: OVCAR-4 ovarian
# OVCAR-5 ovarian = test system: OVCAR-5 ovarian
# OVCAR-8 ovarian = test system: OVCAR-8 ovarian
# PC-3 prostate = test system: PC-3 prostate
# RPMI-8226 leukemia = test system: RPMI-8226 leukemia
# RXF 393 renal = test system: RXF 393 renal
# SF-295 CNS = test system: SF-295 CNS
# SF-539 CNS = test system: SF-539 CNS
# SK-MEL-2 melanoma = test system: SK-MEL-2 melanoma
# SK-MEL-28 melanoma = test system: SK-MEL-28 melanoma
# SK-MEL-5 melanoma = test system: SK-MEL-5 melanoma
# SN12C renal = test system: SN12C renal
# SNB-19 CNS = test system: SNB-19 CNS
# SR leukemia = test system: SR leukemia
# SW-620 colon = test system: SW-620 colon
# TK-10 renal = test system: TK-10 renal
# U251 CNS = test system: U251 CNS
# UACC-257 melanoma = test system: UACC-257 melanoma
# UACC-62 melanoma = test system: UACC-62 melanoma
# UO-31 renal = test system: UO-31 renal
smiles,measurement,setting,value
C[C@]12CCC(N3CCCC3)CC1=CC[C@@H]1[C@@H]2CC[C@]2(C)C(O)[C@H](n3ccnc3)C[C@@H]12 (some centres undefined),TGI,786-0 renal,> 100 µM
same,TGI,A498 renal,> 100 µM
same,TGI,A549 NSCLC,> 100 µM
same,TGI,ACHN renal,> 100 µM
same,TGI,CAKI-1 renal,> 100 µM
same,TGI,CCRF-CEM leukemia,> 100 µM
same,TGI,COLO 205 colon,> 100 µM
same,TGI,DU-145 prostate,> 100 µM
same,TGI,EKVX NSCLC,> 100 µM
same,TGI,HCT-116 colon,> 100 µM
same,TGI,HCT-15 colon,> 100 µM
same,TGI,HL-60(TB) leukemia,36.1 µM
same,TGI,HOP-92 NSCLC,> 100 µM
same,TGI,HT29 colon,> 100 µM
same,TGI,IGROV1 ovarian,> 100 µM
same,TGI,K-562 leukemia,> 100 µM
same,TGI,LOX IMVI melanoma,> 100 µM
same,TGI,M14 melanoma,34.4 µM
same,TGI,MCF7 breast,> 100 µM
same,TGI,MDA-MB-231 breast,> 100 µM
same,TGI,MDA-MB-435,> 100 µM
same,TGI,MDA-N,> 100 µM
same,TGI,MOLT-4 leukemia,83.6 µM
same,TGI,NCI-H226 lung,> 100 µM
same,TGI,NCI-H23 lung,> 100 µM
same,TGI,NCI-H460 lung,> 100 µM
same,TGI,NCI-H522 lung,> 100 µM
same,TGI,NCI/ADR-RES ovarian,> 100 µM
same,TGI,OVCAR-3 ovarian,> 100 µM
same,TGI,OVCAR-4 ovarian,> 100 µM
same,TGI,OVCAR-5 ovarian,> 100 µM
same,TGI,OVCAR-8 ovarian,> 100 µM
same,TGI,PC-3 prostate,> 100 µM
same,TGI,RPMI-8226 leukemia,> 100 µM
same,TGI,RXF 393 renal,72.8 µM
same,TGI,SF-295 CNS,> 100 µM
same,TGI,SF-539 CNS,46.5 µM
same,TGI,SK-MEL-2 melanoma,> 100 µM
same,TGI,SK-MEL-28 melanoma,68.5 µM
same,TGI,SK-MEL-5 melanoma,> 100 µM
same,TGI,SN12C renal,> 100 µM
same,TGI,SNB-19 CNS,> 100 µM
same,TGI,SR leukemia,43.9 µM
same,TGI,SW-620 colon,> 100 µM
same,TGI,TK-10 renal,> 100 µM
same,TGI,U251 CNS,> 100 µM
same,TGI,UACC-257 melanoma,> 100 µM
same,TGI,UACC-62 melanoma,> 100 µM
same,TGI,UO-31 renal,> 100 µM
